Data reported in patent US11744799B2, “Topical composition” (MC2 Therapeutics Limited, priority 2017, dated 2023).
Where “and” joins values, the source holds several entries; their conditions need not be identical. Equal values may be shown once.

Assay: Stability of 1% crisaborole solution in 50% ethanol/citrate buffer at various pH
Assay type: physicochemical
Details: for % peak purity: 1% solution, 50% ethanol, 40° C. for one month
Method: The sample was stored in a closed, airtight glass container with headspace comprising no more than 5% by volume of the total usable volume of the container. Each container containing a sample was stored at a constant temperature of 40° C. in a standard laboratory incubator (for example, Memmert IF260PLUS Incubator). The storage period for each sample was […]. The chemical stability of the crisaborole in each sample after the storage period was measured by a HPLC method. The HPLC method was as follows: A 1% solution of crisaborole was prepared with 50% ethanol and a citrate buffer to pH 5.5. The system was then stored at 40° C. for one month under the conditions of Example 3 and gave an 84% peak purity. Equivalent solutions were prepared and tested at pH 4.5, 6.5, 7.5 and 8.5.

pH at which chemical stability is highest (aqueous medium, pH 4.5 to 8.5 tested): 5.5
% peak purity (pH 4.5): 79.5%
% peak purity (pH 5.5, citrate buffer): 84% and 84.1%
% peak purity (pH 6.5): 79.8%
% peak purity (pH 7.5): 72.1%
% peak purity (pH 8.5): 51.3%
Compound: N#Cc1ccc(Oc2ccc3c(c2)COB3O)cc1 [crisaborole]
